Active and inactive are the calls of the source.
Experiments:
[1] = target: T1, Beta-2 adrenergic receptor (Homo sapiens, UniProt P07550); assay: ADRB2 activation measured by internalization – cell-based, FAP fluorogen, flow cytometry, cherry pick 1, dose response (AID 588763); type: functional
[2] = target: T1, Beta-2 adrenergic receptor; assay: Dose response for HTS for Beta-2AR agonists via FAP method from Powderset1.; type: functional
[3] = Cytotoxicity Dose Response with AM2.2-beta2AR cells for PowderSet01.; type: functional, cell-based; conditions: read-out: EC50_MICROM
[4] = target: T2, Estrogen receptor beta (Homo sapiens, UniProt Q92731);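 note: recombinant ER-beta bound to coactivator SRC1 peptide in presence of estradiol agonist; inhibitors block coactivator peptide binding and lower the FRET signal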
[5] = target: T3, Estrogen receptor (Homo sapiens, UniProt P03372);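 note: potency for inhibiting coactivator peptide recruitment to the receptor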
T3 sequence (P03372 whole entry): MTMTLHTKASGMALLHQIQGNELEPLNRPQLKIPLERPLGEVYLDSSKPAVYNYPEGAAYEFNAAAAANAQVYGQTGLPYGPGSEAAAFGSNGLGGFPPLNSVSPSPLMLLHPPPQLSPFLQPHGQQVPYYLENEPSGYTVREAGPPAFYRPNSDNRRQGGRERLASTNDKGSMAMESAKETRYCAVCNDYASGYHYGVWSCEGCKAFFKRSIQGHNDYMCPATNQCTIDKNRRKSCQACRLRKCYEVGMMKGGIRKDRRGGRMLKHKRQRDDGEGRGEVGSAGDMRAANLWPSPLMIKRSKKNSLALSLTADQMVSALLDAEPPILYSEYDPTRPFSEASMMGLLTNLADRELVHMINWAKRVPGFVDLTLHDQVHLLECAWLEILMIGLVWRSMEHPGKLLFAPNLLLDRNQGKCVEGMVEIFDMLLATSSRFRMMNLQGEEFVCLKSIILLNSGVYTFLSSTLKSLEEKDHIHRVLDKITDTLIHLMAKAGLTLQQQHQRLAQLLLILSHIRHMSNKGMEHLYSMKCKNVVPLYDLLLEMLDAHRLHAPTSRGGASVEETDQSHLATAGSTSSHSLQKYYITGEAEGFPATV

[6] = target: T4, Sentrin-specific protease 8 (Homo sapiens, UniProt Q96LD8); type: functional;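 note: kinetic enzyme assay of SENP8 cleaving a Nedd8 protein substrate, dose-response confirmation of screening hits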
T4 sequence (Q96LD8 whole entry): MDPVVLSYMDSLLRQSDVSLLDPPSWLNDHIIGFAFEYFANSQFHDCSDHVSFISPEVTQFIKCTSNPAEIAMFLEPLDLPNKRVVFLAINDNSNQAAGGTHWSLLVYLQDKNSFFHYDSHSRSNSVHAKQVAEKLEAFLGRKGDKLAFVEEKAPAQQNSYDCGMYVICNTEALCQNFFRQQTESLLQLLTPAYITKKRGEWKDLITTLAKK

[7] = target: T2, Estrogen receptor beta; assay: blockers of SRC-3 recruitment to ERβ – biochemical, ELISA, streptavidin-HRP readout, orthogonal assay, confirmation (AID 1060)
[8] = target: Induced myeloid leukemia cell differentiation protein Mcl-1 (Homo sapiens, UniProt Q07820); type: functional
[9] = target: T5, Sentrin-specific protease 1 (Homo sapiens, UniProt Q9P0U3); assay: Dose response confirmation of small molecule inhibitors of the catalytic domain of the SUMO protease, SENP1 in a FRET assay.; type: functional; conditions: read-out: IC50_Mean
[10] = target: Transitional endoplasmic reticulum ATPase (Homo sapiens, UniProt P55072); assay: p97 ATPase inhibitors, dose response, biochemical (AID 1534)
[11] = target: Transitional endoplasmic reticulum ATPase (Homo sapiens, UniProt P55072, C522A); assay: C522A mutant p97 ATPase inhibitors, dose response, counter-screen for p97 inhibitor project, biochemical, luminescence (AID 1544)
[12] = target: T5, Sentrin-specific protease 1; assay: SENP1 catalytic domain blockers, concentration series – biochemical, kinetic FRET, dose response (AID 651697); type: functional; conditions: read-out: IC50_Mean
[13] = Luminescence Cell-Based Dose Retest to Confirm Inhibitors of Cancer Stem Cells. [Related pubchem assays (depositor defined):AID2717, AID2721]; type: functional; conditions: Homo sapiens
[14] = blockers of CRF-binding protein–CRF-R2 complex – cell-based, uHTS hits, 384-well, dose response (AID 651639); type: functional, Homo sapiens; conditions: read-out: IC50_Mean
[15] = target: T6, Corticotropin-releasing factor receptor 2/Corticotropin-releasing factor-binding protein (Homo sapiens, UniProt P24387+Q13324); assay: activators of CRF receptor 2 with binding protein – uHTS hits, confirmation (AID 602473); type: functional; conditions: read-out: EC50_Mean
T6 sequence (Q13324 whole entry): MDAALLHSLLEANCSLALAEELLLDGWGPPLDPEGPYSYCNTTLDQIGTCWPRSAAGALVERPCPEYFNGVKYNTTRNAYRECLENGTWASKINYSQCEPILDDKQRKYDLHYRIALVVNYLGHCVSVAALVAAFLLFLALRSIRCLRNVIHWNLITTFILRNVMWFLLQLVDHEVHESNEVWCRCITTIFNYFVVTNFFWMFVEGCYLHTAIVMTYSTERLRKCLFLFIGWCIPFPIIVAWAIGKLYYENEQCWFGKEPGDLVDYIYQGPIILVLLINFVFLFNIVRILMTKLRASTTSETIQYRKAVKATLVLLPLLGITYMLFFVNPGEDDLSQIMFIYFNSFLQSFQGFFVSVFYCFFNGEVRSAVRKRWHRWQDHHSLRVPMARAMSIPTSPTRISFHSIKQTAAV
T6 sequence (P24387 whole entry): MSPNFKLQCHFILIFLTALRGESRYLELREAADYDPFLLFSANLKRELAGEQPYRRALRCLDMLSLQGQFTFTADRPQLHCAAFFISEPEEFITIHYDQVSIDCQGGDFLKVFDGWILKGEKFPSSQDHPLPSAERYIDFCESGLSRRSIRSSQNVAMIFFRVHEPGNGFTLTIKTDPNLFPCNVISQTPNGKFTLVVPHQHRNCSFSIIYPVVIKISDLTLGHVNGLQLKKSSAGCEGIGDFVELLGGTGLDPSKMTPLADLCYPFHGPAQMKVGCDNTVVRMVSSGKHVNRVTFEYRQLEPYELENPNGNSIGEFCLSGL

[16] = target: T6, Corticotropin-releasing factor receptor 2/Corticotropin-releasing factor-binding protein; assay: Dose Response confirmation of uHTS hits for small molecule antagonists of the CRF-binding protein and CRF-R2 receptor complex.; type: functional; conditions: read-out: IC50_Mean
[17] = target: Cytochrome P450 2C19 (Homo sapiens, UniProt P33261); assay: Cytochrome panel assay with activity outcomes. Panel member name: p450-cyp2c19 Compounds with AC50 equal or less than 10 uM are considered active; type: functional; conditions: read-out: AC50
[18] = target: T7, Streptokinase A (Streptococcus pyogenes serotype M1, UniProt P10520); assay: viability-normalized secreted streptokinase activity reduction – plasminogen activation absorbance, OD405, dose response (AID 1914); type: functional, Streptococcus pyogenes M1 GAS;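 note: secreted streptokinase activity via plasminogen activation per viability signal from cell pellet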
T7 sequence (P10520 whole entry): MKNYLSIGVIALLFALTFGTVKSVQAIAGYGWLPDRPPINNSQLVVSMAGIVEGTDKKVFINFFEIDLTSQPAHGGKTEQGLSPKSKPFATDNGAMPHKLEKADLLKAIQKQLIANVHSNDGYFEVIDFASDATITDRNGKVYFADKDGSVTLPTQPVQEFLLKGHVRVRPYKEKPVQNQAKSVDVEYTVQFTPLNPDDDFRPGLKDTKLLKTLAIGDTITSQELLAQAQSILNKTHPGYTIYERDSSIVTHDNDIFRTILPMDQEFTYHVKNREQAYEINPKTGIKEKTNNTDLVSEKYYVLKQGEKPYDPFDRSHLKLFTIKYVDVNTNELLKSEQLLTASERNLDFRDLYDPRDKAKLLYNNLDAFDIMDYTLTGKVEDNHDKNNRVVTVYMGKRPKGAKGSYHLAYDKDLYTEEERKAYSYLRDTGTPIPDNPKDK

[19] = target: Cytochrome P450 2C9 (Homo sapiens, UniProt P11712)
[20] = system: Streptococcus sp. 'group A'; assay: Streptococcus pyogenes SK(-)GAS viability under kanamycin – luminescence, BacTiterGlo, confirmation, counter-screen for streptokinase expression inhibitor project, dose response (AID 1900); type: functional, organism-based
[21] = target: Potassium voltage-gated channel subfamily KQT member 2 (Rattus norvegicus, UniProt O88943); assay: blockers of KCNQ2 channel current – cell-based, automated electrophysiology, set II, rat KCNQ2, dose response (AID 588637); type: functional
[22] = system: Streptococcus; assay: GAS UMAA2166 growth inhibition – luminescence, BacTiterGlo, counter-screen for streptokinase expression inhibitor project, dose response (AID 1915); type: functional, organism-based;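 note: potency for reduction of bacterial viability or growth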
[23] = target: T8, Cytochrome P450 1A2 (Homo sapiens, UniProt P05177);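 note: PubChem cytochrome P450 panel assay, CYP1A2 panel member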
T8 sequence (P05177 whole entry): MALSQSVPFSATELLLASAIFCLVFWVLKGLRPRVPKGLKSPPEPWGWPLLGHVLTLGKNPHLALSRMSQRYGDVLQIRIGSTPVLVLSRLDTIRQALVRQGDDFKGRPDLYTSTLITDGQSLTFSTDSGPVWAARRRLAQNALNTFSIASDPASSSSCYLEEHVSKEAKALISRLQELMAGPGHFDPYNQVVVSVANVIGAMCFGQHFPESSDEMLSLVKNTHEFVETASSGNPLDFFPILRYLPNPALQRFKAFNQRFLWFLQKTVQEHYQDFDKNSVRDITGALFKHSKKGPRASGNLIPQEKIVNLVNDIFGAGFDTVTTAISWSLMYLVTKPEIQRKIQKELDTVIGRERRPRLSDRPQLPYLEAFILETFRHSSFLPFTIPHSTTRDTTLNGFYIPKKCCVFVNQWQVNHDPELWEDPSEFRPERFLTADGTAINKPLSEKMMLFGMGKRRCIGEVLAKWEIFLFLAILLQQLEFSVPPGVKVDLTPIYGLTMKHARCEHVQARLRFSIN

T2 sequence (Q92731 whole entry): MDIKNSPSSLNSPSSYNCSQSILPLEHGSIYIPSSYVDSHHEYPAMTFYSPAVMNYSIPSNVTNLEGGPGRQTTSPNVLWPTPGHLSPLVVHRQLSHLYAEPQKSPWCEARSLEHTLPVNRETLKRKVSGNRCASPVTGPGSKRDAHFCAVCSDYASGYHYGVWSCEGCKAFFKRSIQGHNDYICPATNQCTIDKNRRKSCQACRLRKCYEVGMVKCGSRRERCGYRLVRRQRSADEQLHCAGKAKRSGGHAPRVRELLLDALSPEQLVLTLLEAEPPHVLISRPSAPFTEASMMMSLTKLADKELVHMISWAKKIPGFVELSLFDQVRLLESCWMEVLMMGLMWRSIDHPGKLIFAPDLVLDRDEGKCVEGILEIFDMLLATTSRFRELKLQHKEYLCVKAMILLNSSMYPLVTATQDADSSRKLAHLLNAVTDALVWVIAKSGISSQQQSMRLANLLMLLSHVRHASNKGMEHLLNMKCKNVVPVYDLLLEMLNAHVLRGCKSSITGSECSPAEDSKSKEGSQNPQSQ
T1 sequence (P07550 whole entry): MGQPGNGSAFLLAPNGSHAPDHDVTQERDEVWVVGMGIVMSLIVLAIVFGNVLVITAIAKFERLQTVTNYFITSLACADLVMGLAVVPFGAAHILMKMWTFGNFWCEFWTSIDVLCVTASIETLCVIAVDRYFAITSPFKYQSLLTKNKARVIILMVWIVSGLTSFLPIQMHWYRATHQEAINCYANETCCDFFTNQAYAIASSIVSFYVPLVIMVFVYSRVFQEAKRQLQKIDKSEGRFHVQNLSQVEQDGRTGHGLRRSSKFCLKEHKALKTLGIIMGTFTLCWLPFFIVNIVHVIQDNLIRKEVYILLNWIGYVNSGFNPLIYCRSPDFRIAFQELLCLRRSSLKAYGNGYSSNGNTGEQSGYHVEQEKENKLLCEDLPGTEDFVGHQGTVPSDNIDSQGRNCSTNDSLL
T5 sequence (Q9P0U3 whole entry, the tested form may be a part): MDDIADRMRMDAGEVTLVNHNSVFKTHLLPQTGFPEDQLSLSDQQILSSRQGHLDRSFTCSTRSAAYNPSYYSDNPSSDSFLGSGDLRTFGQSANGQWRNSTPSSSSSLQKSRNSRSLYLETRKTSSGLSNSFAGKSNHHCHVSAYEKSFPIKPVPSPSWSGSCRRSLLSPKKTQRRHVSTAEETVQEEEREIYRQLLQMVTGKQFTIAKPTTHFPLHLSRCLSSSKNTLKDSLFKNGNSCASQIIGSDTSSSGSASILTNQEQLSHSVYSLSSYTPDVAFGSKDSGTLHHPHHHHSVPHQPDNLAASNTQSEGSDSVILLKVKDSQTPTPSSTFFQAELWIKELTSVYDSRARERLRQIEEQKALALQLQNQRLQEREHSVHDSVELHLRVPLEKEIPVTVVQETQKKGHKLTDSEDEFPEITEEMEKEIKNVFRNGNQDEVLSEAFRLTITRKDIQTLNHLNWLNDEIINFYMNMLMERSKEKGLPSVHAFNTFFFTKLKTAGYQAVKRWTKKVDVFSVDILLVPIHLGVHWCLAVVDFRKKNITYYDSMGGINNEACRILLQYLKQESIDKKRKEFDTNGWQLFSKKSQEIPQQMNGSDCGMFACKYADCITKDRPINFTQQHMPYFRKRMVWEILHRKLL
Sequence of Cytochrome P450 2C19 (P33261 whole entry): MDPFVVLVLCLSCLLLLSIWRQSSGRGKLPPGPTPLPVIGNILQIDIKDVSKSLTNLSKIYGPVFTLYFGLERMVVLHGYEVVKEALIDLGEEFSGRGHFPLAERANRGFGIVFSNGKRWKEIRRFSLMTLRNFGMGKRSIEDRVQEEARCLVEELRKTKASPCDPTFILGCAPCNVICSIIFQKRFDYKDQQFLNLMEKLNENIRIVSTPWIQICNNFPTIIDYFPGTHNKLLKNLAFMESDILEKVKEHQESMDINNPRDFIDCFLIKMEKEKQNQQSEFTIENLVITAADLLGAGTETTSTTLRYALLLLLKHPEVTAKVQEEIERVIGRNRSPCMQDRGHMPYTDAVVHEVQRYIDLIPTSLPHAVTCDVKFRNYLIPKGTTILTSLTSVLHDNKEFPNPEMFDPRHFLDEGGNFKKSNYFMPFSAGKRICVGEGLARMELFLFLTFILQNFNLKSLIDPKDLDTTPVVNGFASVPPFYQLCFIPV
Sequence of Induced myeloid leukemia cell differentiation protein Mcl-1 (Q07820 whole entry, the tested form may be a part): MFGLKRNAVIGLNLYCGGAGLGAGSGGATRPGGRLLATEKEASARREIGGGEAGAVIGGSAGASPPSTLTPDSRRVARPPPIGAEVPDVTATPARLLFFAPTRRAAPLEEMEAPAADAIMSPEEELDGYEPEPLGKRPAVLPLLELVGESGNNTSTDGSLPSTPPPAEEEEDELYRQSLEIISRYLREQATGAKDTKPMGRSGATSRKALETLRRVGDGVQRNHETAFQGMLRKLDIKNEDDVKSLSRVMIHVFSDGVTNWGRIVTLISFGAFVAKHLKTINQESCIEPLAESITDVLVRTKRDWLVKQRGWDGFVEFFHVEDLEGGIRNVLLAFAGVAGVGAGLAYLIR
Sequence of Transitional endoplasmic reticulum ATPase (Homo sapiens, UniProt P55072, C522A) (P55072 2-806 C522A limits assumed): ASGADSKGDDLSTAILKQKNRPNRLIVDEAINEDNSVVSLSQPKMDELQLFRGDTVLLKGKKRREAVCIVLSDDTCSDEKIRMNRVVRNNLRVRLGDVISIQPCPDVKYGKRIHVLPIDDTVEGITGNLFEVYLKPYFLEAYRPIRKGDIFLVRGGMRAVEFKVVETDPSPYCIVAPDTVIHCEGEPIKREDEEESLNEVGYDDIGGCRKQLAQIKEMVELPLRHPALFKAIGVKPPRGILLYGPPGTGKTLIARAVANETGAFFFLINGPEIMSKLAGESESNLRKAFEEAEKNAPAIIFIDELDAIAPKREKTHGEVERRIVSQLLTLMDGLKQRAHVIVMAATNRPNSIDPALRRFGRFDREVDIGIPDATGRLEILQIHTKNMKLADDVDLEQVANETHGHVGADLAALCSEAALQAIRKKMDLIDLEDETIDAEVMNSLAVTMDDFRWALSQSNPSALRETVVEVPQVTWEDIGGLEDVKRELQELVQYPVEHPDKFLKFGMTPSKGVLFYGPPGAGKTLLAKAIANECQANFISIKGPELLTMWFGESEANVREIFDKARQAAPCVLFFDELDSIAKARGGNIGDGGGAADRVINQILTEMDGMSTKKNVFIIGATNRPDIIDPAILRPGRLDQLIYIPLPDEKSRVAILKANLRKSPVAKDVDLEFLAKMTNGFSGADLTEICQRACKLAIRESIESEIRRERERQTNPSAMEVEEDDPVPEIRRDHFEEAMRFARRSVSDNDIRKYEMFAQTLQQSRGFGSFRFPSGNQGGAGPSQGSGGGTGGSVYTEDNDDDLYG
Sequence of Potassium voltage-gated channel subfamily KQT member 2 (O88943 whole entry): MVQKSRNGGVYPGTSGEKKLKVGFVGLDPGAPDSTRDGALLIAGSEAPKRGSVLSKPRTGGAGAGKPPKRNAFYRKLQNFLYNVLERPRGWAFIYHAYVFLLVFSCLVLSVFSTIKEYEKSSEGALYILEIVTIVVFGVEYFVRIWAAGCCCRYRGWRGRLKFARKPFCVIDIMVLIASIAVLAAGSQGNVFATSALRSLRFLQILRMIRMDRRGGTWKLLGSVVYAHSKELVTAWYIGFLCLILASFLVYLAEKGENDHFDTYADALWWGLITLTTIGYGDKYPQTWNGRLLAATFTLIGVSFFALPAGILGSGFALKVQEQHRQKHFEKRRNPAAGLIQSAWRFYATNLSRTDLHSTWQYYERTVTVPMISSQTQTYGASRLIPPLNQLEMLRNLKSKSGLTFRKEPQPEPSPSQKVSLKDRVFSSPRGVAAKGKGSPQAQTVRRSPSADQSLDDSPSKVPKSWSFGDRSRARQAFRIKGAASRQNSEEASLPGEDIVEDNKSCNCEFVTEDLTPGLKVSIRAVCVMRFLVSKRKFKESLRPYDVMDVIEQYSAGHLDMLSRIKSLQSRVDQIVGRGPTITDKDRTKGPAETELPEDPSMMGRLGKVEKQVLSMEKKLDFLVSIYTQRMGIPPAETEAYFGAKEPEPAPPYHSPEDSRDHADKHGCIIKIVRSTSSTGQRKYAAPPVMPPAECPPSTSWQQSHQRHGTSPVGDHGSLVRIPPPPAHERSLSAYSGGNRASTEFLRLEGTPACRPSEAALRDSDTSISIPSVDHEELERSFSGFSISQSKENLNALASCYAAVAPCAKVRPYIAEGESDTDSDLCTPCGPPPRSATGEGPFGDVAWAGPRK
Sequence of Cytochrome P450 2C9 (P11712 whole entry): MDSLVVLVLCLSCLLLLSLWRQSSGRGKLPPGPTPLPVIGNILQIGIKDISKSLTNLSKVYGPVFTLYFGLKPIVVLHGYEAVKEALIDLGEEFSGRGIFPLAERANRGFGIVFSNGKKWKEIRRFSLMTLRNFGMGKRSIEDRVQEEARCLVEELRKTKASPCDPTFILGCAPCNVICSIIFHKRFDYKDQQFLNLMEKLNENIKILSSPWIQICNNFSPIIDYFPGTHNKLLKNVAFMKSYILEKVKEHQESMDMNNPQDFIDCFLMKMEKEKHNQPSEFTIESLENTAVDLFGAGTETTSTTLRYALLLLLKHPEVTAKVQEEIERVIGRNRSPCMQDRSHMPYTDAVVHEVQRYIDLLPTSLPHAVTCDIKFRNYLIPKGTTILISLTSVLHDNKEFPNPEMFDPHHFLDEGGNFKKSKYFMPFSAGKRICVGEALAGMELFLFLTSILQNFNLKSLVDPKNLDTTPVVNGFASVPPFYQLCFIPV

With CCCCC(=O)Nc1ccc(S(=O)(=O)N2CCCCC2c2cccnc2)cc1 (stereo not drawn) the EC50 [1] was 0.0798 µM (active), the EC50 [2] was 0.0322 µM (active) and the EC50 [3] was 23.3 µM (active).
For CC1=C(SCCC#N)S/C(=C2\SC(C)=C(SCCC#N)S2)S1, the IC50 [4] was > 50 µM (not active), the IC50 [5] was 5.1 µM (active) and the IC50 [6] was 0.299 µM (active). The IC50 [7] was 0.129 µM (not active) and the IC50 [8] was 2.89 µM (active).
With Oc1ccc(Cl)cc1/C=C(\Cl)c1nc(O)c2ccc(Cl)cc2n1 the IC50 [9] was 0.428 µM (active), the IC50 [10] was > 50 µM (not active) and the IC50 [11] was > 50 µM (not active). For the same molecule, the IC50 [12] was 0.654 µM (active) and the AC50 [13] was 1.32 µM (active).
With CCOC(=O)CSC1=C(C#N)C(c2ccc(Cl)cc2)C(C(=O)OC)C(=O)N1 (stereo not drawn) the IC50 [14] was 9.62 µM (active), the EC50 [15] was > 53 µM (inactive) and the IC50 [16] was 26.5 µM (active).
For O=C(CSc1nc2ccccc2c(=O)n1NC(=O)c1ccccc1)c1ccc(Cl)cc1, the AC50 [17] was 2.24 µM (inconclusive), the EC50 [18] was 106 µM (active) and the AC50 [19] was 1 µM (inconclusive). The EC50 [20] was 7.26 µM (active), the IC50 [21] was 1.53 µM (active) and the EC50 [22] was > 150 µM (not active). The AC50 [23] was 6.31 µM (inconclusive).
